# From patent US10947237B2, “Antimicrobial compounds and methods of making and using the same” (BIOVERSYS AG, priority 2015, dated 2021)
# Experiments:
# [1] = test system: Eschericia coli (E. Coli) strain ATCC25922; test: standard microdilution assay, minimum inhibitory concentration (MIC); type: cell-based; conditions: Escherichia coli
# Summary of the method: (§1)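 Compounds were scored +/− against a 16 µg/mL MIC cutoff, using CLSI-based microdilution with QC reference strains. The organisms were S. aureus 11540 and E. coli ATCC25922.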
# [2] = test system: Staphylococcus aureus (S. aureus) 11540 strain; test: as above; type: cell-based
# Summary of the method: as §1
"MIC ([1]; Table 2, strain ATCC25922)","MIC ([2]; Table 2, 11540 strain)","MIC ([1]; ATCC25922, Table 2a)",MIC ([2]; Table 2a),SMILES
≤ 16 µg/mL,≤ 16 µg/mL,,,C[C@H](N)CCCc1cc(Cl)c(F)c(-c2cc3cn(-c4ccc(CN[C@H](CCNC(=N)N)CNc5nc6cnccc6o5)cc4)c(=O)nc3[nH]2)c1 [Compound 56]
≤ 16 µg/mL,≤ 16 µg/mL,,,C[C@H](N)CCCc1cc(Cl)c(F)c(-c2cc3cn(-c4ccc([C@H]5CC(N)C[C@H](CCN)O5)cc4)c(=O)nc3[nH]2)c1 (stereo partly shown) [Compound 127]
≤ 16 µg/mL,≤ 16 µg/mL,,,C[C@H](N)CCCc1cc(Cl)c(F)c(-c2cc3cn(-c4ccc([C@@H]5CCC[C@@H](CCNC(=N)C6CCC6)N5)cc4)c(=O)nc3[nH]2)c1 [Compound 84]
≤ 16 µg/mL,≤ 16 µg/mL,,,C[C@H](N)CCCc1cc(Cl)c(F)c(-c2cc3cn(-c4ccc(CO[C@@H](CCNC(=N)N)CNc5nccs5)cc4)c(=O)nc3[nH]2)c1 [Compound 60]
≤ 16 µg/mL,≤ 16 µg/mL,,,C[C@H](N)CCCc1cc(Cl)c(F)c(-c2cc3cn(-c4ccc([C@H]5CC(N)C[C@H](CCNC(=N)N)O5)cc4)c(=O)nc3[nH]2)c1 (stereo partly shown) [Compound 119]
≤ 16 µg/mL,≤ 16 µg/mL,,,C=C[C@@H](CCNC(=N)N)NCc1ccc(-n2cc3cc(-c4cc([C@H]5CC[C@H](CN)O5)cc(Cl)c4F)[nH]c3nc2=O)cc1 [Compound 139]
,,≤ 16 µg/mL,≤ 16 µg/mL,C=C[C@H](N)CCCc1cc(Cl)c(F)c(-c2cc3cn(-c4ccc(CO[C@H](CCNC(=N)N)CNC(=N)N)cc4)c(=O)nc3[nH]2)c1 [Compound 160]
≤ 16 µg/mL,≤ 16 µg/mL,,,N=C(N)NCC[C@@H]1CCC[C@@H](c2ccc(-n3cc4cc(C5CCNC5)[nH]c4nc3=O)cc2)N1 (stereo partly shown) [Compound 100]
≤ 16 µg/mL,≤ 16 µg/mL,,,CC(=N)NCC[C@@H]1C[C@H](CN)O[C@@H](c2ccc(-n3cc4cc(-c5cc(CCC[C@H](C)N)cc(Cl)c5F)[nH]c4nc3=O)cc2)C1 [Compound 97]
≤ 16 µg/mL,≤ 16 µg/mL,,,C[C@H](N)CCCc1cc(Cl)c(F)c(-c2cc3cn(-c4ccc(CN[C@H](CCNC(=N)N)CNc5ccccn5)cc4)c(=O)nc3[nH]2)c1 [Compound 21]
,,≤ 16 µg/mL,≤ 16 µg/mL,C[C@H](N)CCCc1cc(Cl)c(F)c(-c2cc3cn(-c4ccc(CO[C@@H](CCNC(=N)N)CNC(=N)N)cc4)c(=O)nc3[nH]2)c1 [Compound 174]
> 16 µg/mL,> 16 µg/mL,,,N=C(N)NCC[C@@H]1C[C@H](Nc2nccs2)C[C@@H](c2ccc(-n3cc4cc(C5CCNC5)[nH]c4nc3=O)cc2)O1 (stereo partly shown) [Compound 124]
≤ 16 µg/mL,≤ 16 µg/mL,,,C[C@H](N)CCCc1cc(Cl)c(F)c(-c2cc3cn(-c4ccc([C@@H]5CCC[C@@H](CNCc6cc[nH]c(=O)c6)N5)cc4)c(=O)nc3[nH]2)c1 [Compound 16]
≤ 16 µg/mL,≤ 16 µg/mL,,,C[C@H](N)CCCc1cc(Cl)c(F)c(-c2cc3cn(-c4ccc(CN[C@H](CCNC(=N)N)CNc5ccncc5)cc4)c(=O)nc3[nH]2)c1 [Compound 58]
≤ 16 µg/mL,≤ 16 µg/mL,,,C[C@H](N)CCCc1cc(Cl)c(F)c(-c2cc3cn(-c4ccc([C@@H]5CCC[C@@H](CNCc6cn[nH]c6)N5)cc4)c(=O)nc3[nH]2)c1 [Compound 5]
> 16 µg/mL,> 16 µg/mL,,,N=C(N)NCC[C@H](CF)NCc1ccc(-n2cc3cc(C4CCNC4)[nH]c3nc2=O)cc1 (stereo partly shown) [Compound 126]
≤ 16 µg/mL,≤ 16 µg/mL,,,Cc1cn(CC[C@@H]2CCC[C@@H](c3ccc(-n4cc5cc(-c6cc(CCC[C@H](C)N)cc(Cl)c6F)[nH]c5nc4=O)cc3)N2)c(=O)o1 [Compound 8]
≤ 16 µg/mL,≤ 16 µg/mL,,,C[C@H](N)CCCc1cc(Cl)c(F)c(-c2cc3cn(-c4ccc([C@H]5CC(NC(=N)N)C[C@H](CCNC(=N)N)O5)cc4)c(=O)nc3[nH]2)c1 (stereo partly shown) [Compound 128]
≤ 16 µg/mL,≤ 16 µg/mL,,,CC(C)C(=N)NCC[C@@H]1CCC[C@@H](c2ccc(-n3cc4cc(-c5cc(CCC[C@H](C)N)cc(Cl)c5F)[nH]c4nc3=O)cc2)N1 [Compound 82]
,,≤ 16 µg/mL,≤ 16 µg/mL,N=C(N)NCC[C@H](CNC(=N)N)OCc1ccc(-n2cc3cc(-c4cc(CCC[C@@H](N)CO)cc(Cl)c4F)[nH]c3nc2=O)cc1 [Compound 163]
≤ 16 µg/mL,≤ 16 µg/mL,,,Cc1ccncc1NC[C@@H](CCNC(=N)N)NCc1ccc(-n2cc3cc(-c4cc(CCC[C@H](C)N)cc(Cl)c4F)[nH]c3nc2=O)cc1 [Compound 65]
≤ 16 µg/mL,≤ 16 µg/mL,,,C[C@H](N)CCCc1cc(Cl)c(F)c(-c2cc3cn(-c4ccc([C@@H]5CC[C@H](CNC(=N)N)O5)cc4)c(=O)nc3[nH]2)c1 [Compound 70]
≤ 16 µg/mL,≤ 16 µg/mL,,,C[C@H](N)CCCc1cc(Cl)c(F)c(-c2cc3cn(-c4ccc([C@H]5CC[C@@H](CCNC(=N)N)O5)cc4)c(=O)nc3[nH]2)c1 [Compound 73]

"MIC ([1]; Table 2, strain ATCC25922)","MIC ([2]; Table 2, 11540 strain)","MIC ([1]; ATCC25922, Table 2a)",MIC ([2]; Table 2a),SMILES
≤ 16 µg/mL,≤ 16 µg/mL,,,C[C@H](N)CCCc1cc(Cl)c(F)c(-c2cc3cn(-c4ccc(CN[C@@H](CF)CCNC(=N)N)cc4)c(=O)nc3[nH]2)c1 [Compound 107]
≤ 16 µg/mL,≤ 16 µg/mL,,,C[C@H](N)CCCc1cc(Cl)c(F)c(-c2cc3cn(-c4ccc(CN[C@H](CCNC(=N)N)CNc5nc6ccccc6[nH]5)cc4)c(=O)nc3[nH]2)c1 [Compound 37]
,,≤ 16 µg/mL,≤ 16 µg/mL,CC(=N)NC[C@H](CCNC(=N)N)OCc1ccc(-n2cc3cc(-c4cc(CCC[C@H](C)N)cc(Cl)c4F)[nH]c3nc2=O)cc1 [Compound 175]
> 16 µg/mL,≤ 16 µg/mL,,,C[C@H](N)CCCc1cc(Cl)c(F)c(-c2cc3cn(-c4ccc([C@H]5CCC[C@H](CCNc6ncccn6)N5)cc4)c(=O)nc3[nH]2)c1 [Compound 26]
≤ 16 µg/mL,≤ 16 µg/mL,,,COc1ccc(CNc2ncc(CC[C@@H](CCNC(=N)N)NCc3ccc(-n4cc5cc(-c6cc(CCC[C@H](C)N)cc(Cl)c6F)[nH]c5nc4=O)cc3)s2)cc1 [Compound 25]
> 16 µg/mL,> 16 µg/mL,,,N=C(N)NCC[C@H]1CN(c2ccc(-n3cc4cc(C5CCNC5)[nH]c4nc3=O)cc2)CCO1 (stereo partly shown) [Compound 145]
≤ 16 µg/mL,≤ 16 µg/mL,,,N=C(N)NCC[C@H](CNC(=N)N)OCc1ccc(-n2cc3cc(CCNC4CCNCC4)[nH]c3nc2=O)cc1 [Compound 114]
≤ 16 µg/mL,≤ 16 µg/mL,,,Cc1nnc(NC[C@@H](CCNC(=N)N)NCc2ccc(-n3cc4cc(-c5cc(CCC[C@H](C)N)cc(Cl)c5F)[nH]c4nc3=O)cc2)o1 [Compound 51]
≤ 16 µg/mL,> 16 µg/mL,,,O=c1nc2[nH]c(C3CCNC3)cc2cn1-c1ccc([C@@H]2CCC[C@@H](CCc3ncc[nH]3)N2)cc1 (stereo partly shown) [Compound 130]
≤ 16 µg/mL,≤ 16 µg/mL,,,Cc1nc[nH]c1CNC[C@@H]1CCC[C@@H](c2ccc(-n3cc4cc(-c5cc(CCC[C@H](C)N)cc(Cl)c5F)[nH]c4nc3=O)cc2)N1 [Compound 11]
> 16 µg/mL,> 16 µg/mL,,,C[C@H](N)CCCc1cc(Cl)c(F)c(-c2cc3cn(-c4ccc([C@@H]5CCC[C@@H](Cc6cnc(N)o6)N5)cc4)c(=O)nc3[nH]2)c1 [Compound 10]
,,≤ 16 µg/mL,≤ 16 µg/mL,C[C@H](N)CCCc1cc(Cl)c(F)c(-c2cc3cn(-c4ccc(CO[C@H](CCNC(=N)N)CN(C)C)cc4)c(=O)nc3[nH]2)c1 [Compound 159]
,,≤ 16 µg/mL,≤ 16 µg/mL,C[C@H](N)CCCc1cc(Cl)c(F)c(-c2cc3cn(-c4ccc(CO[C@H](CCNS(C)(=O)=O)CNC(=N)N)cc4)c(=O)nc3[nH]2)c1 [Compound 167]
≤ 16 µg/mL,≤ 16 µg/mL,,,C[C@H](N)CCCc1cc(Cl)c(F)c(-c2cc3cn(-c4ccc([C@H]5CC[C@H](CCNC(=N)N)O5)cc4)c(=O)nc3[nH]2)c1 [Compound 74]
,,≤ 16 µg/mL,≤ 16 µg/mL,CC(C)(N)CCCc1cc(Cl)c(F)c(-c2cc3cn(-c4ccc(CO[C@H](CCNC(=N)N)CNC(=N)N)cc4)c(=O)nc3[nH]2)c1 [Compound 166]
≤ 16 µg/mL,≤ 16 µg/mL,,,COc1ccnc(NC[C@@H](CCNC(=N)N)NCc2ccc(-n3cc4cc(-c5cc(CCC[C@H](C)N)cc(Cl)c5F)[nH]c4nc3=O)cc2)c1 [Compound 47]
≤ 16 µg/mL,≤ 16 µg/mL,,,C[C@H](N)CCCc1cc(Cl)c(F)c(-c2cc3cn(-c4ccc(CN[C@H](CCNC(=N)N)Cn5ccc(=O)[nH]c5=O)cc4)c(=O)nc3[nH]2)c1 [Compound 7]
≤ 16 µg/mL,≤ 16 µg/mL,,,C[C@H](N)CCCc1cc(Cl)c(F)c(-c2cc3cn(-c4ccc([C@H]5CCC[C@H](CCNC(=N)N)C5)cc4)c(=O)nc3[nH]2)c1 [Compound 35]
≤ 16 µg/mL,≤ 16 µg/mL,,,C[C@H](N)CCCc1cc(Cl)c(F)c(-c2cc3cn(-c4ccc([C@@H]5CCC[C@@H](C[C@@H](O)c6ccn[nH]6)N5)cc4)c(=O)nc3[nH]2)c1 [Compound 22]
> 16 µg/mL,> 16 µg/mL,,,C=C[C@H]1C[C@@H](CCNC(=N)N)O[C@H](c2ccc(-n3cc4cc(C5CCNC5)[nH]c4nc3=O)cc2)C1 (stereo partly shown) [Compound 79]
≤ 16 µg/mL,≤ 16 µg/mL,,,CC(=N)NCC[C@H]1CC(N)C[C@H](c2ccc(-n3cc4cc(-c5cc(CCC[C@H](C)N)cc(Cl)c5F)[nH]c4nc3=O)cc2)O1 (stereo partly shown) [Compound 120]
,,≤ 16 µg/mL,≤ 16 µg/mL,N=C(N)NCC[C@H](CNC(=N)N)OCc1ccc(-n2cc3cc(-c4cc(CCC[C@@H](N)CF)cc(Cl)c4F)[nH]c3nc2=O)cc1 [Compound 162]
≤ 16 µg/mL,≤ 16 µg/mL,,,C[C@H](N)CCCc1cc(Cl)c(F)c(-c2cc3cn(-c4ccc([C@@H]5CCC[C@@H](CCNC(=N)N)C5)cc4)c(=O)nc3[nH]2)c1 [Compound 34]

SMILES,"MIC ([1]; Table 2, strain ATCC25922)","MIC ([2]; Table 2, 11540 strain)","MIC ([1]; ATCC25922, Table 2a)",MIC ([2]; Table 2a)
C[C@H](N)CCCc1cc(-c2[nH]c3nc(=O)n(-c4ccc([C@H](C)NCCCNC(=N)N)cc4)cc3c2[N+](=O)[O-])c(F)c(Cl)c1[N+](=O)[O-] [Compound 110],> 16 µg/mL,> 16 µg/mL,,
